Test results as given in US12011502B2, “Compositions and methods of administering baclofen” (AMNEAL PHARMACEUTICALS LLC, priority 2021, dated 2024).

How the values were obtained:
[1] = limited evaluation, literature; cited from earlier work
[2] = reported in the literature; cited from earlier work
[3] = Solubility of baclofen in solutions comprising sulfate or phosphate; assay type: physicochemical
Experimental: A concentration of 8.8 mg/mL sodium chloride is considered isotonic and therefore desirable as being physiologically acceptable.

Compound	biological activity of the metabolite [1]	dominant metabolite of baclofen, reported share [2] [%]	solubility of baclofen ([3]; in solutions comprising sulfate or phosphate)	concentration of baclofen that can be dissolved ([3]; solutions containing phosphate, sulfate, potassium, sodium, or magnesium, such as greater than 3, 4, 5 or 6 mg/mL)
O=C(O)CC(CO)c1ccc(Cl)cc1 (stereo not shown) [M1, 3-(4-chlorophenyl)-4-hydroxybutyric acid]	inactive	15	–	–
NCC(CC(=O)O)c1ccc(Cl)cc1 (stereo not shown) [baclofen, 4-amino-3-(4-chlorophenyl)butanoic acid]	–	–	increased	greater than 2 mg/mL
